Measurements: patent publication US10696677B2 (Research Triangle Institute, priority 2016, dated 2020)
Like-named read-outs stand apart in the source and are kept apart here.

Legend:
[1] = biological target: T1, hCB1 (Homo sapiens, UniProt P21554); test: functional fluorescent CB1 activated Gαq16-coupled intracellular calcium mobilization assay in CHO-K1 cells; assay type: cell-based; parameters: expressed in transfected cells; host or cells: CHO-K1 (membranes); conditions: average of 3-6 measurements, read-out: Apparent antagonist dissociation constant (Ke) at hCB1
T1 sequence (P21554 whole entry): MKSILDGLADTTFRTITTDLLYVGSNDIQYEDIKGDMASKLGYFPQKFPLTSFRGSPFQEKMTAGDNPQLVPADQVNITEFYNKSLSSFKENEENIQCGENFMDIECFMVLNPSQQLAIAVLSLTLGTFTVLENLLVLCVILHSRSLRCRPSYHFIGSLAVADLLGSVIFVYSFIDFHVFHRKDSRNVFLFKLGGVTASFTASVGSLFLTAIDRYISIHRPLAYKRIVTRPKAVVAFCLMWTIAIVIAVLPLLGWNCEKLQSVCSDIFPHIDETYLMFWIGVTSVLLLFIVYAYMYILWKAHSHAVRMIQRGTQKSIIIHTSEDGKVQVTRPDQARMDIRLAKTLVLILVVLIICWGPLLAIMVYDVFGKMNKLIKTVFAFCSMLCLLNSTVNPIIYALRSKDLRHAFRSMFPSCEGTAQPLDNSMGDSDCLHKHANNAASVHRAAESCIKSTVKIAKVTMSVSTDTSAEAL

[2] = tested on: MDCK; test: MDCK BBB Assay; assay type: in vitro ADME; conditions: for % Permeable: MDCK BBB assay; for MDCK BBB Assay (Basolateral/Apical Peak Area Ratio) Mean: MDCK cells
[3] = biological target: T1, hCB1; test: radioligand displacement binding at CB1 (membranes of CHO-K1 cells over-expressing receptor); conditions: for CB2 Ki/CB1 Ki selectivity ratio: CB1 versus CB2
Method: (§1) All compounds were characterized by H^1 NMR and evaluated using a calcium mobilization assay. […] Further characterization of select compounds was performed using radioligand displacement of [3H]1 and equilibrium dissociation constant (Ki) values were determined.

[4] = biological target: hCB2 (Homo sapiens, UniProt P34972); test: radioligand displacement binding at CB2 ([3H]CP55940, membranes of CHO-K1 cells over-expressing receptor)
hCB2, sequence (P34972 whole entry): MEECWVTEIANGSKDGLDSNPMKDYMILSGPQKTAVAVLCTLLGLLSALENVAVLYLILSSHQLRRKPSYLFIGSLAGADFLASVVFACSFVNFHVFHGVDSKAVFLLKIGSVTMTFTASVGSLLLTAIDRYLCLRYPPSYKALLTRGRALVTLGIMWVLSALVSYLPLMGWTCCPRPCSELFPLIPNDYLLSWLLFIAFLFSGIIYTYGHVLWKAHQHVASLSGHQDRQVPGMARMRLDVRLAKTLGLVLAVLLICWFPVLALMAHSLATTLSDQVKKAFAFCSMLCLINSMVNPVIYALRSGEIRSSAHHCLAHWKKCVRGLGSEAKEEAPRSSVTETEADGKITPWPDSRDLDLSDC
Method: as §1

[5] = read-out: Binding affinity (Ki) at hCB1, radioligand displacement, CHO-K1 membranes, average of 3-6 measurements
[6] = read-out: Binding affinity (Ki) at hCB2, displacement of [3H]CP55940, CHO-K1 membranes, average of 3-6 measurements

Structure (SMILES)	Kb [1] [nM]	melting point [°C]	% Permeable [2] [%]	MDCK BBB Assay (Basolateral/Apical Peak Area Ratio) Mean [2]	Ki [3] [nM]	CB2 Ki/CB1 Ki selectivity ratio [3]	Ki [4] [nM]	Ki [3, 5] [nM]	Binding affinity (Ki) at hCB2 ([4]; displacement of [3H]CP55940, CHO-K1 membranes, average of 3-6 measurements)	Ki [4, 6] [nM]
O=S(=O)(NC1CCN(c2ncnc3c2nc(-c2ccccc2Cl)n3-c2ccc(Cl)cc2)CC1)c1ccccc1F [Compound 1, N-{1-[8-(2-Chlorophenyl)-9-(4-chlorophenyl)-9H-purin-6-yl]piperidin-4-yl}-2-fluorobenzene-1-sulfonamide]	0.1	185 to 187	–	–	–	–	–	–	–	–
N#Cc1ccc(N2CCN(c3ncnc4c3nc(-c3ccccc3Cl)n4-c3ccc(Cl)cc3)CC2)nc1 [Compound 3, 6-{4-[8-(2-Chlorophenyl)-9-(4-chlorophenyl)-9H-purin-6-yl]piperazin-1-yl}pyridine-3-carbonitrile]	11.3	–	1	0.005	4.8	101	484	–	–	–
O=S(=O)(NC1CCN(c2ncnc3c2nc(-c2ccccc2Cl)n3-c2ccc(Cl)cc2)CC1)c1ccc(F)cc1 [Compound 4, N-{1-[8-(2-Chlorophenyl)-9-(4-chlorophenyl)-9H-purin-6-yl]piperidin-4-yl}-4-fluorobenzene-1-sulfonamide]	1.1	196 to 197	0	0.0006	–	–	–	–	–	–
Cn1cc(-n2c(-c3ccccc3Cl)nc3c(N4CCC(NS(=O)(=O)c5ccc(F)c(F)c5)CC4)ncnc32)cn1 [Compound 12, N-{1-[8-(2-Chlorophenyl)-9-(1-methyl-1H-pyrazol-4-yl)-9H-purin-6-yl]piperidin-4-yl}-3,4-difluorobenzene-1-sulfonamide]	140	162 to 164	–	–	–	–	–	–	–	–
O/N=C(/c1ccc(F)cc1)C1CCN(c2ncnc3c2nc(-c2ccccc2Cl)n3-c2ccc(Cl)cc2)CC1 [Compound 29, (E)-{1-[8-(2-chlorophenyl)-9-(4-chlorophenyl)-9H-purin-6-yl]piperidin-4-yl}(4-fluorophenyl)methanone oxime]	21	–	–	–	4	–	–	–	–	–
Clc1ccc(-n2c(-c3ccccc3Cl)nc3c(N4CCC(c5nc6ccccc6[nH]5)CC4)ncnc32)cc1 [Compound 30, 6-[4-(1H-benzimidazol-2-yl)piperidin-1-yl]-8-(2-chlorophenyl)-9-(4-chlorophenyl)-9H-purine]	12	–	–	–	–	–	–	47	–	–
Clc1ccc(-n2c(-c3ccccc3Cl)nc3c(N4CCC(Nc5ccccc5)CC4)ncnc32)cc1 [Compound 31, 1-[8-(2-chlorophenyl)-9-(4-chlorophenyl)-9H-purin-6-yl]-N-phenylpiperidin-4-amine]	1.4	–	0	0	–	–	–	–	–	–
Clc1ccc(-n2c(-c3ccccc3Cl)nc3c(N4CCC(Nc5ccccn5)CC4)ncnc32)cc1 [Compound 32, N-{1-[8-(2-chlorophenyl)-9-(4-chlorophenyl)-9H-purin-6-yl]piperidin-4-yl}pyridin-2-amine]	54	–	0	0.001	2	2300	4600	–	–	–
CN(Cc1ccccc1)C1CCN(c2ncnc3c2nc(-c2ccccc2Cl)n3-c2ccc(Cl)cc2)CC1 [Compound 39, N-benzyl-1-[8-(2-chlorophenyl)-9-(4-chlorophenyl)-9H-purin-6-yl]-N-methylpiperidin-4-amine]	106	–	–	–	–	98	4100	42	–	–
O=C(Nc1ccccc1)N1CCN(c2ncnc3c2nc(-c2ccccc2Cl)n3-c2ccc(C(F)(F)F)nc2)CC1 [Compound 45]	8	–	–	–	39	30	790	–	–	–
FC(F)Oc1ccc(-n2c(-c3ccccc3Cl)nc3c(N4CCN(Cc5ccccc5Cl)CC4)ncnc32)cn1 [Compound 46, 8-(2-Chlorophenyl)-6-{4-[(2-chlorophenyl)methyl]piperazin-1-yl}-9-[6-(difluoromethoxy)pyridin-3-yl]-9H-purine]	27	147 to 149	–	–	7	34	240	–	–	–
FC(F)(F)c1ccc(-n2c(-c3ccccc3Cl)nc3c(N4CCN(Cc5ccccc5Cl)CC4)ncnc32)cn1 [Compound 47, 8-(2-Chlorophenyl)-6-{4-[(2-chlorophenyl)methyl]piperazin-1-yl}-9-[6-(trifluoromethyl)pyridin-3-yl]-9H-purine]	140	189 to 190	–	–	–	–	–	–	–	–
NC(=O)c1ccc(-n2c(-c3ccccc3Cl)nc3c(N4CCN(Cc5ccccc5Cl)CC4)ncnc32)cc1 [Compound 48, 4-[8-(2-chlorophenyl)-6-{4-[(2-chlorophenyl)methyl]piperazin-1-yl}-9H-purin-9-yl]benzamide]	440	120 to 122	–	–	–	–	–	–	–	–
Cc1cc(-n2c(-c3ccccc3Cl)nc3c(N4CCN(Cc5ccccc5Cl)CC4)ncnc32)no1 [Compound 49, 8-(2-chlorophenyl)-6-{4-[(2-chlorophenyl)methyl]piperazin-1-yl}-9-(5-methyl-1,2-oxazol-3-yl)-9H-purine]	320	79 to 81	–	–	–	–	–	–	–	–
Cn1ccc(-n2c(-c3ccccc3Cl)nc3c(N4CCN(Cc5ccccc5Cl)CC4)ncnc32)n1 [Compound 51, 8-(2-Chlorophenyl)-6-{4-[(2-chlorophenyl)methyl]piperazin-1-yl}-9-(1-methyl-1H-pyrazol-3-yl)-9H-purine]	380	150 to 152	–	–	–	–	–	–	–	–
CCCCC(=O)NC1(c2ccccc2)CCN(c2ncnc3c2nc(-c2ccncc2)n3-c2ccc(Cl)cc2)CC1 [Compound 55, N-{1-[9-(4-chlorophenyl)-8-pyridin-4-yl-9H-purin-6-yl]-4-phenylpiperidin-4-yl}pentanamide]	869	–	–	–	272	5.8	1570	–	–	–
Clc1ccc(-n2c(-c3ccccc3Cl)nc3c(N4CCN(c5ccc(OCc6ccccc6)cc5)CC4)ncnc32)cc1 [Compound 65, 6-{4-[4-(Benzyloxy)phenyl]piperazin-1-yl}-8-(2-chlorophenyl)-9-(4-chlorophenyl)-9H-purine]	11.6	–	8	0.082	4.7	–	–	–	inactive	–
CC(C)S(=O)(=O)N1CCN(c2ncnc3c2nc(-c2ccccc2Cl)n3-c2ccc(Cl)cc2)CC1 [Compound 80, 8-(2-Chlorophenyl)-9-(4-chlorophenyl)-6-{4-[(1-methylethyl)sulfonyl]piperazin-1-yl}-9H-purine]	1.5	–	0	0.000	–	–	–	1.4	–	978
CCCCS(=O)(=O)N1CCN(c2ncnc3c2nc(-c2ccccc2Cl)n3-c2ccc(Cl)cc2)CC1 [Compound 81, 8-(2-Chlorophenyl)-9-(4-chlorophenyl)-6-[4-(butylsulfonyl)piperazin-1-yl]-9H-purine]	0.4	–	5	0.053	–	871	–	0.6	–	505
CC(C)CS(=O)(=O)N1CCN(c2ncnc3c2nc(-c2ccccc2Cl)n3-c2ccc(Cl)cc2)CC1 [Compound 82, 8-(2-Chlorophenyl)-9-(4-chlorophenyl)-6-{4-[(2-methylpropyl)sulfonyl]piperazin-1-yl}-9H-purine]	0.2	–	0	–	–	–	2840	2	–	–
CCCCC(=O)NC1CCN(c2ncnc3c2nc(-c2ccncc2C)n3-c2ccc(Cl)cc2)CC1 [Compound 90, N-{1-[9-(4-chlorophenyl)-8-(3-methylpyridin-4-yl)-9H-purin-6-yl]piperidin-4-yl}pentanamide]	42.2	–	38	0.379	12.1	51	620	–	–	–
CCCCC(=O)NC1CCN(c2ncnc3c2nc(-c2ccncc2Cl)n3-c2ccc(Cl)cc2)CC1 [Compound 91, N-{1-[9-(4-chlorophenyl)-8-(3-chloropyridin-4-yl)-9H-purin-6-yl]piperidin-4-yl}pentanamide]	27.8	–	41	0.409	9.2	126	1150	–	–	–
CCCCC(=O)NC1(c2ccccc2)CCN(c2ncnc3c2nc(-c2ccncc2Cl)n3-c2ccc(Cl)cc2)CC1 [Compound 93, N-{1-[9-(4-chlorophenyl)-8-(3-chloropyridin-4-yl)-9H-purin-6-yl]-4-phenylpiperidin-4-yl}pentanamide]	18.5	–	0	0.000	17.9	46	830	–	–	–
Clc1ccc(-n2c(-c3ccccc3Cl)nc3c(N4CCN(c5nc6ccccc6[nH]5)CC4)ncnc32)cc1 [Compound 123, 6-[4-(1H-benzimidazol-2-yl)piperazin-1-yl]-8-(2-chlorophenyl)-9-(4-chlorophenyl)-9H-purine]	53	–	–	–	–	–	–	–	–	–
